The results in this text go back to PubChem BioAssay (NCI).

Where “and” joins values, the source holds several entries; their conditions need not be identical. Equal values may be shown once.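 Method: 48-hour compound exposure of cells in 96-well plates, five concentrations, linear interpolation of endpoints. GI50: concentration for 50% inhibition of growth. Definition used: TGI = concentration required for complete inhibition of growth.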 Where only a bound is given, the exact number is not on record here.

What all share (assay): growth of human tumour cells (NCI), 48 h
In experiment [1] the test system is MDA-MB-435.
For experiment [2], the system named is MDA-MB-231 breast.
The test system of experiment [3] is SK-MEL-5 melanoma.
Experiment [4] concerns HL-60(TB) leukemia.
For experiment [5], the system named is NCI/ADR-RES ovarian.
Experiment [6] deals with OVCAR-3 ovarian.
Experiment [7] deals with HOP-92 NSCLC.
Experiment [8] concerns SF-268 CNS.
For experiment [9], the system named is EKVX NSCLC.
Experiment [10] has as its system A549 NSCLC.

Turning to `CC(C)(C)C(=O)OCOP(=O)(OCOC(=O)C(C)(C)C)C1CC(O)N(O)C1=O` (configuration not stated), the GI50 was 8.15 µM in experiment [1]; 3.65 µM in experiment [2]; 21.5 µM in experiment [3]; 3.44 µM in experiment [4]; 4.39 µM in experiment [5]; 9.79 µM in [6]. In addition, the GI50 in experiment [7] was 1.84 µM; in experiment [8], 3.54 µM; in experiment [9], 10.8 µM; in experiment [10] it was 30.7 µM. The TGI in [1] was over 100 µM; in experiment [2], 40.9 µM; in experiment [3], over 100 µM; in [4], 22.1 µM; in experiment [5], over 100 µM; in [6], over 100 µM. Besides, the TGI was 8.99 µM in experiment [7], over 100 µM in experiment [8], over 100 µM in experiment [9] and over 100 µM in experiment [10].

In the case of `COc1ccc2c(c1)[n+](=O)c(C(=O)c1ccco1)c(C(F)(F)F)n2[O-]`, the GI50 in experiment [1] is 3.08 µM; in [2], 3.01 µM; in experiment [3], 1.31 µM; in experiment [4], 3.29 µM; in experiment [5], 2 µM; in experiment [6], 1.54 µM. The GI50 in experiment [7] is 1.83 µM; in [8] it was 3.41 µM; in experiment [9] it was 3.47 µM; in experiment [10], 2.56 µM. Further, the TGI in experiment [1] was 14.5 µM; in experiment [2] it was 13.2 µM; in experiment [3] it was 2.68 µM; in experiment [4], over 100 µM; in experiment [5] it was 6.57 µM; in experiment [6], 11.5 µM. For the same compound, the TGI in experiment [7] turned out to be 19.5 µM; in experiment [8], 33.2 µM; in [9], 9.81 µM; in experiment [10], 16.6 µM.

As for `Clc1ccc2c(c1)N(CCCN1CCCC1)c1ccccc1S2`, the GI50 in experiment [1] was 1.92 µM; in experiment [2], 3.42 µM; in experiment [3], 1.83 µM; in [4], 4.34 µM; in experiment [5] it was 5.34 µM; in experiment [6], 10.4 µM. Further, the GI50 was 3.94 µM in [7], 5.75 µM in [8], 8 µM in experiment [9] and 11 µM in [10]. The TGI in experiment [1] came out at 4.02 µM; in experiment [2], 12.8 µM; in [3], 3.32 µM; in experiment [4] it was 16.8 µM; in [5] it was 18.8 µM; in [6] it was 22.9 µM. Moreover, the TGI in experiment [7] is 16.2 µM; in experiment [8] it was 20.7 µM; in experiment [9] it was 21.6 µM; in experiment [10], 24.5 µM.

Consider `CC1(C)CCC2=C(O1)c1ccccc1C(=O)C2=O`, for which the GI50 was 0.191 µM in [1]; 2.01 µM in experiment [2]; 1.01 µM in experiment [3]; 2.83 µM in [4]; 0.445 µM and 0.481 µM in experiment [5]; 1.31 µM in [6]. Further, the GI50 in experiment [7] was 1.72 µM; in experiment [8], 1.44 µM; in experiment [10], 2.15 µM. Moreover, the TGI in experiment [2] is 5.55 µM and 1.67 µM; in experiment [3], 2.19 µM and 0.714 µM; in experiment [4] it was over 100 µM; in [5], 2.69 µM and 1.8 µM; in experiment [6], 2.9 µM and 0.698 µM; in experiment [7] it was 3.33 µM and 10.4 µM. Also, the TGI in [8] is 3.32 µM and 1.83 µM; in experiment [9], 3.78 µM and 3.59 µM; in [10], 5.14 µM and 1.73 µM.

Take `COc1cc(-c2nc3ccccc3s2)ccc1NC(=O)COc1ccc(Cl)cc1`: the GI50 in [1] is 8.16 µM; in experiment [2], 4.98 µM; in [3], 8.68 µM; in experiment [4], over 100 µM; in experiment [5], 3.22 µM; in experiment [6] it was 6.8 µM. In addition, the GI50 was 1.66 µM in experiment [7], 3.02 µM in experiment [8], 8.67 µM in experiment [9] and 3.07 µM in [10]. Also, the TGI in experiment [1] was over 100 µM; in [2], over 100 µM; in experiment [3] it was over 100 µM; in experiment [4] it was over 100 µM; in experiment [5], 27.6 µM; in [6] it was over 100 µM. Moreover, the TGI is 4.99 µM in experiment [7], 50.4 µM in experiment [8], over 100 µM in experiment [9] and over 100 µM in [10].

For `O=C1C(=O)c2c(nc3ccc(Br)cn23)-c2ccccc21`, the GI50 is 0.185 µM in experiment [1]; 0.465 µM in experiment [2]; 0.317 µM in experiment [3]; 0.242 µM in experiment [4]; 0.699 µM in experiment [5]; 0.265 µM in experiment [6]. Moreover, the GI50 in [7] was 1.22 µM; in experiment [8], 0.543 µM; in experiment [9], 1.54 µM; in experiment [10] it was 1.66 µM. Also, the TGI in experiment [1] turned out to be 0.334 µM; in [2], 2.86 µM; in experiment [3] it was 0.788 µM; in experiment [4], 0.624 µM; in experiment [5] it was 3.87 µM; in experiment [6], 0.889 µM. Also, the TGI is 2.7 µM in experiment [7], 1.97 µM in experiment [8], 3.31 µM in experiment [9] and 3.81 µM in experiment [10].

As to `COC(=O)C(=O)C(C(=O)C(=O)Nc1nc2ccc(C)cc2s1)c1nc2ccc([N+](=O)[O-])cc2[nH]c1=O` (configuration not stated), the TGI in experiment [1], in experiment [2], in experiment [3], in [4], in [5] and in experiment [6] was over 100 µM throughout. The TGI in experiment [7], in experiment [8], in experiment [9] and in experiment [10] was over 100 µM throughout.

As for `C=CC(C1=CC(=O)C(OC)=CC1=O)c1ccccc1` (configuration not stated), the TGI came out at 28.3 µM in [1]; 19.2 µM in experiment [2]; 30 µM in experiment [3]; 6.72 µM in [4]; 44.8 µM in experiment [5]; 31.2 µM in experiment [6]. Moreover, the TGI is 11.8 µM in experiment [7], 41.3 µM in [8], 30.5 µM in [9] and over 62 µM in experiment [10].

Consider `COc1ccc(C(=O)COC(=O)[C@H](C[Se][Se]C[C@H](NC(=O)c2ccc(Br)cc2F)C(=O)OCC(=O)c2ccc(OC)cc2)NC(=O)c2ccc(Br)cc2F)cc1`, for which the GI50 in [1] was 1.51 µM; in [2] it was 0.846 µM; in experiment [3], 0.596 µM; in [4], 2.72 µM; in [5], 0.399 µM; in experiment [6], 0.88 µM. The GI50 in experiment [7] is 2.04 µM; in [8], 0.943 µM; in experiment [9], 0.591 µM; in experiment [10], 0.421 µM. Moreover, the TGI in experiment [1] was found to be 5.05 µM; in experiment [2], 2.77 µM; in experiment [3] it was 2.76 µM; in [4] it was 12.2 µM; in experiment [5], 1.39 µM; in experiment [6], 2.31 µM. Moreover, the TGI in experiment [7] was found to be 5.87 µM; in experiment [8], 3.21 µM; in experiment [9] it was 2.35 µM; in experiment [10] it was 3.79 µM.

Consider `O=C(/C(=C\c1ccc([N+](=O)[O-])cc1)S(=O)Cc1ccc(F)cc1)c1ccc(F)cc1` (configuration not stated), for which the GI50 in [1] was 1.84 µM; in experiment [2], 1.99 µM; in experiment [3], 1.8 µM; in experiment [4], 2.09 µM; in experiment [5], 2.43 µM; in experiment [6], 1.63 µM. Besides, the GI50 in experiment [7] was 1.86 µM; in experiment [8], 2.11 µM; in experiment [9] it was 1.91 µM; in experiment [10], 2.83 µM. Moreover, the TGI in experiment [1] was found to be 4.09 µM; in experiment [2] it was 4.35 µM; in experiment [3], 3.5 µM; in experiment [4], 5.38 µM; in experiment [5] it was 6.98 µM; in [6] it was 3.01 µM. The TGI worked out at 3.98 µM in [7], 5.34 µM in [8], 4.54 µM in [9] and 10.2 µM in experiment [10].

For the compound `N/N=C(\C(=O)Nc1ccc(Cl)cc1Cl)C(c1cnc2ccccc2n1)[N+](=O)[O-]` (configuration not stated), the TGI in experiment [1], in experiment [2], in experiment [3], in experiment [4], in experiment [5] and in experiment [6] was over 100 µM each time. Further, the TGI in experiment [7], in experiment [8], in [9] and in [10] was over 100 µM in each case.

As to `CNC(=O)OCc1c2ccncc2c(C)c2c1[nH]c1ccccc12`, the TGI in [1] was 1.58 µM; in experiment [2], 2.87 µM; in experiment [3], 0.773 µM; in experiment [4], 0.92 µM; in experiment [5], 2.3 µM; in experiment [6] it was 1.74 µM. The TGI in experiment [7] turned out to be 16.5 µM; in experiment [8], 1.65 µM; in experiment [9], 2.24 µM; in [10] it was 2.58 µM.

In the case of `c1cc2[nH]ncc2cc1-c1nc2ccc3[nH]ncc3c2c2c1CCCC2`, the GI50 in experiment [1] is 0.315 µM; in experiment [2], 2.67 µM; in experiment [3], 1.67 µM; in experiment [4], 0.512 µM; in [5] it was 2.08 µM; in experiment [6], 1.78 µM. Further, the GI50 is 0.966 µM in experiment [7], 2.31 µM in [8], 1.91 µM in [9] and 1.78 µM in [10]. Moreover, the TGI was 3.74 µM in experiment [1]; 11.6 µM in experiment [2]; 3.92 µM in experiment [3]; 3.09 µM in [4]; 16.4 µM in experiment [5]; 7.58 µM in [6]. For the same compound, the TGI in experiment [7] is 4.58 µM; in experiment [8], 14 µM; in experiment [9] it was 9.15 µM; in [10] it was over 31.4 µM.

Turning to `CN(C)CCNC(=O)C(C)(C)Oc1ccc(C(=O)c2ccc(Cl)cc2)cc1Cl`, the TGI in [1] was 17.2 µM; in [2], 4.93 µM and 23.6 µM; in experiment [3], 6.11 µM and 2.97 µM; in experiment [4] it was over 29.1 µM; in experiment [5], 26.1 µM; in [6], 25.7 µM. The TGI in experiment [7] is 18.1 µM; in experiment [8], 28.7 µM; in experiment [9] it was 23.9 µM; in experiment [10], 24.6 µM. Also, the GI50 in experiment [2] is 2.25 µM; in experiment [3], 1.53 µM; in [4] it was 2.82 µM; in [10], 12.2 µM.
